We go through 20 compounds from ChEMBL document CHEMBL3804794, “Design, synthesis and biological evaluation of pyrazol-furan carboxamide analogues as novel Akt kinase inhibitors” (Eur J Med Chem, 2016).

Data set [1] is described as follows: Antiproliferative activity against human HCT116 cells after 72 hrs by SRB assay. It is filed as functional, cell-based. The conditions noted are these: HCT-116, 72 h.
Data set [2] is described as follows: Antiproliferative activity against human OVCAR8 cells after 72 hrs by SRB assay. The class given is functional, cell-based. The conditions noted are these: OVCAR-8, 72 h. A general note: In SRB staining, fixed cells bind dye roughly in proportion to their protein.
For data set [3], the target named is T1, RAC-alpha serine/threonine-protein kinase (Homo sapiens, UniProt P31749). Put plainly: Inhibition of Akt1 (unknown origin) expressed in Escherichia coli using peptide substrate after 1 hr by HTRF assay. (Time-resolved FRET reads energy transfer from a long-lived donor to a nearby acceptor.)
Data set [4] is described as follows: Inhibition of PKA (unknown origin) after 60 mins by Z-LYTE kinase assay. The arrangement: species or system Homo sapiens.
For data set [5], the target named is T2, Testis-specific serine/threonine-protein kinase 1 (Mus musculus, UniProt Q61241).
T2 sequence (Q61241 whole entry): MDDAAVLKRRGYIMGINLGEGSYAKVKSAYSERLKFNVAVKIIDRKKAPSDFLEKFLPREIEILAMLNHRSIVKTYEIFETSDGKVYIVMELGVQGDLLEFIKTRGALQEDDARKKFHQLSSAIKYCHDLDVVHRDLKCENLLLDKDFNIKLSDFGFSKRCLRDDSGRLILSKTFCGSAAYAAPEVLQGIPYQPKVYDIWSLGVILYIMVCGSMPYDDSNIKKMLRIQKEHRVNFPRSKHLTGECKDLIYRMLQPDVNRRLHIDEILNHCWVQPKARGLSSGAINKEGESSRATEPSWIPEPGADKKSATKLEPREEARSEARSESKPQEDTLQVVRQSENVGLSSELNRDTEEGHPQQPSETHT
The data set can be described thus: Inhibition of mouse TSSK1 by luminescent ADP-Glo assay kit. (In general: ADP-Glo first removes unused ATP, then detects ADP through luciferase.)

Data set [6] concerns the target T1, RAC-alpha serine/threonine-protein kinase. Put plainly: Inhibition of Akt1 (unknown origin) expressed in Escherichia coli at 1 ug/ml using peptide substrate after 1 hr by HTRF assay.
Data set [7] is described as follows: Inhibition of Akt in human PTEN-null LNCAP cells assessed as suppression in PRAS40 phosphorylation after 1 hr by ELISA analysis. The class given is cell-based.
Data set [8] in a line: Effect on total Akt levels in human PC3 cells at 1 to 10 uM after 3 hrs by western blot analysis. The class given is ADME, cell-based. The conditions noted are these: pc-3, 3 h.
The nature of data set [9]: Effect on total GAPDH levels in human PC3 cells at 1 to 10 uM after 3 hrs by western blot analysis. The class given is ADME, cell-based. Conditions: pc-3, 3 h.
Data set [10] in a line: Effect on total GSK3beta levels in human PC3 cells at 1 to 10 uM after 3 hrs by western blot analysis. It is filed as ADME, cell-based. Conditions: pc-3, 3 h.

T1 sequence (P31749 whole entry): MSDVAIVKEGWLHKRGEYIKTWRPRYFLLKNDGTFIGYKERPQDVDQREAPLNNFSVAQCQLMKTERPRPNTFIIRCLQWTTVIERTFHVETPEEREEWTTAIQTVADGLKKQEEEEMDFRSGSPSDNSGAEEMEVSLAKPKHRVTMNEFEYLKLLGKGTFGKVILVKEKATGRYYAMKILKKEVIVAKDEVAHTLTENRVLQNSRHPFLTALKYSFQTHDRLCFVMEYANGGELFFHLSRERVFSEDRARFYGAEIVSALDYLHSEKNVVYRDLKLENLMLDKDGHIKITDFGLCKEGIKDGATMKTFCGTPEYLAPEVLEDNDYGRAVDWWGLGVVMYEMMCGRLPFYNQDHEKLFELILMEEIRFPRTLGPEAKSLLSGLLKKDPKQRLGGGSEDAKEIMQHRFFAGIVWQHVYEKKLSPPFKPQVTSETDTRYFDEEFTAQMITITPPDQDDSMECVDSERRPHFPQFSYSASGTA

The IC50 is the concentration at which inhibition is half-maximal. Consider `Cn1ncc(Br)c1-c1csc(C(=O)NC2(c3ccc(F)cc3)CCNCC2)c1`, for which the results for the IC50 in data set [1], in data set [2] and in data set [3] were 17.5 µM, 7.78 µM and 0.36 µM, respectively.
The matching figures for `Cn1ncc(Cl)c1-c1cc(C(=O)NC2(c3ccc(F)cc3)CCNCC2)oc1Cl`: 6.47 µM, 4.81 µM and 0.39 µM.
For the compound `CN[C@@H]1C[C@H]2O[C@@](C)([C@@H]1OC)n1c3ccccc3c3c4c(c5c6ccccc6n2c5c31)C(=O)NC4` [STAUROSPORINE], the IC50 stood at 0.0082 µM in [4] and 0.00033 µM in data set [5].
As usually defined, the inhibition is the change of the read-out against control, counted positive when it falls. Read a low inhibition as little suppression. Regarding `Cn1ncc(Br)c1-c1cc(C(=O)NC2(c3ccc(Cl)c(Cl)c3)CCNCC2)n(C)c1Br`, the IC50 in data set [1] turned out to be 7.75 µM; in data set [2], 4.7 µM. This compound also had an inhibition in data set [6] of 30.3%.
With `Cn1ncc(Cl)c1-c1csc(C(=O)NC2(c3ccc(F)cc3)CCNCC2)c1`, the figures for the IC50 in [1], in data set [2] and in data set [3] were 18.3 µM, 8.19 µM and 0.32 µM, respectively.
As to `Cn1ncc(Cl)c1-c1coc(C(=O)NC2(c3ccc(F)cc3)CCNCC2)c1`, the figures for the IC50 in data set [1], in [2] and in data set [3] were 10.1 µM, 6.46 µM and 0.92 µM, respectively.
Turning to `Cn1ncc(Br)c1-c1coc(C(=O)NC2(c3ccc(Cl)c(Cl)c3)CCNCC2)c1`, the IC50 in [1] was found to be 4 µM; in data set [2], 3.77 µM; in data set [3] it was 0.44 µM.
For `Cn1ncc(Cl)c1-c1c(Cl)c(C(=O)NC2(c3ccc(Cl)c(Cl)c3)CCNCC2)n(C)c1Cl`, the IC50 came out at 9.28 µM in data set [1], 1.77 µM in data set [2] and 0.85 µM in [3].
Consider `Cn1ncc(Cl)c1-c1oc(C(=O)NC2(c3ccc(Cl)c(Cl)c3)CCNCC2)cc1Br`, for which the IC50 was found to be 6.97 µM in data set [1], 5.95 µM in data set [2] and 1.48 µM in data set [3].
As for `Cn1ncc(Br)c1-c1oc(C(=O)NC2(c3ccc(Cl)c(Cl)c3)CCNCC2)cc1Br`, the IC50 in [1] stood at 16.4 µM; in [2] it was 5.81 µM. For the same compound, in [6], the inhibition was determined as 43.5%.
On to `Cn1ncc(Cl)c1-c1cc(C(=O)N[C@H](CN)Cc2ccc(F)c(F)c2)oc1Cl` [UPROSERTIB], for which the IC50 in data set [7] came to 0.0756 µM.
With `Cn1nccc1-c1csc(C(=O)NC2(c3ccc(F)cc3)CCNCC2)c1`, the IC50 in [1] amounted to 24.8 µM; in data set [2] it was 14.3 µM; in [3] it was 0.92 µM.
For `NC1(C(=O)N[C@@H](CCO)c2ccc(Cl)cc2)CCN(c2nc[nH]c3nccc2-3)CC1` [CAPIVASERTIB], the IC50 in data set [1] amounted to 5.2 µM; in [7], 0.337 µM; in [2], 7.27 µM.
Regarding `Cn1ncc(Cl)c1-c1ccc(C(=O)NC2(c3ccc(Cl)c(Cl)c3)CCNCC2)cc1`, the figures for the IC50 in data set [1], in [2] and in data set [3] were 11.9 µM, 5.21 µM and 1.91 µM, respectively.
The corresponding values for `Cn1nccc1-c1csc(C(=O)NC2(c3ccc(Cl)c(Cl)c3)CCNCC2)c1` are 3.92 µM, 1.61 µM and 0.071 µM.
In the case of `Cn1ncc(Cl)c1-c1cc(C(=O)NC2(c3ccc(Cl)c(Cl)c3)CCNCC2)oc1Cl`, the IC50 was 7.76 µM in data set [1], 0.0304 µM in [7], 9.76 µM in data set [2] and 0.061 µM in data set [3]. Moreover, the Activity result in [8], in [9] and in data set [10] was “Non-toxic” each time.
With `Cn1nccc1-c1oc(C(=O)NC2(c3ccc(Cl)c(Cl)c3)CCNCC2)cc1Br`, the IC50 came out at 24.8 µM in [1] and 6.87 µM in data set [2]. In [6], this compound yielded an inhibition of 49.4%.
Consider `Cn1ncc(Br)c1-c1coc(C(=O)NC2(c3ccc(F)cc3)CCNCC2)c1`, for which the IC50 stood at 18.1 µM in [1], 20.1 µM in [2] and 2.02 µM in data set [3].
Take `Cn1ncc(Br)c1-c1ccc(C(=O)NC2(c3ccc(Cl)c(Cl)c3)CCNCC2)cc1`: the values for the IC50 in [1], in data set [2] and in [3] were 11 µM, 1.96 µM and 1.4 µM, respectively.
For `Cn1cc(-c2c(Br)cnn2C)cc1C(=O)NC1(c2ccc(Cl)c(Cl)c2)CCNCC1`, the IC50 is 12.9 µM in data set [1], 2.83 µM in data set [2] and 1.26 µM in data set [3].
